Assays:
Assay type in all cases: in vivo
[1] = test system: ducksalad (Heteranthera limosa); test: Test B flooded paddy test, plant response rating; conditions: 250 g ai/ha; Flood; scale of 0 to 100 where 0 is no effect and 100 is complete control; 13 to 15 days
Procedure, shortened: (§1)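 Flooded 3 cm over soil; compound into paddy water; depth kept constant. Greenhouse 13–15 d.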

[2] = test system: sedge, umbrella (small-flower umbrella sedge, Cyperus difformis); test: Test B flooded paddy test, plant response rating; conditions: 250 g ai/ha; Flood; scale of 0 to 100 where 0 is no effect and 100 is complete control; 13 to 15 days
Procedure, shortened: as §1

[3] = test system: rice (Oryza sativa); test: Test B flooded paddy test, plant response rating; conditions: 250 g ai/ha; Flood; scale of 0 to 100 where 0 is no effect and 100 is complete control; 13 to 15 days
Procedure, shortened: as §1

[4] = test system: barnyardgrass (Echinochloa crus-galli); test: Test B flooded paddy test, plant response rating; conditions: 250 g ai/ha; Flood; scale of 0 to 100 where 0 is no effect and 100 is complete control; 13 to 15 days
Procedure, shortened: as §1

[5] = test system: wheat (Triticum aestivum); test: Test A postemergence, visual injury rating; conditions: 0 is no effect, 100 is complete control
From the text: (§2) Seeds of plant species selected from barnyardgrass (Echinochloa crus-galli), kochia (Kochia scoparia), ragweed (common ragweed, Ambrosia elatior), Italian ryegrass (Lolium multiflorum), large (Lg) crabgrass (Digitaria sanguinalis), giant foxtail (Setaria faberii), morningglory (Ipomoea spp.), pigweed (Amaranthus retroflexus), velvetleaf (Abutilon theophrasti), wheat (Triticum aestivum), and corn (Zea mays) were planted into a blend of loam soil and sand and treated preemergence with a directed soil spray using test chemicals formulated in a non-phytotoxic solvent mixture which included a surfactant.
(§3) At the same time, plants selected from these crop and weed species and also blackgrass (Alopecurus myosuroides), and galium (catchweed bedstraw, Galium aparine) were planted in pots containing the same blend of loam soil and sand and treated with postemergence applications of test chemicals formulated in the same manner. Plants ranged in height from 2 to 10 cm and were in the one- to two-leaf stage for the postemergence treatment. Treated plants and untreated controls were maintained in a greenhouse for approximately 10 days, after which time all treated plants were compared to untreated controls and visually evaluated for injury. Plant response ratings, summarized in Table A, are based on a 0 to 100 scale where 0 is no effect and 100 is complete control. A dash (-) response means no test result.

[6] = test system: giant foxtail (Setaria faberii); test: Test A postemergence, visual injury rating; conditions: 0 is no effect, 100 is complete control
From the text: as §2, §3

[7] = test system: ragweed (common ragweed, Ambrosia elatior); test: Test A postemergence, visual injury rating; conditions: 0 is no effect, 100 is complete control
From the text: as §2, §3

[8] = test system: Italian ryegrass (Lolium multiflorum); test: Test A postemergence, visual injury rating; conditions: 0 is no effect, 100 is complete control
From the text: as §2, §3

[9] = test system: galium (catchweed bedstraw, Galium aparine); test: Test A postemergence, visual injury rating; conditions: 0 is no effect, 100 is complete control
From the text: as §2, §3

[10] = test system: barnyardgrass (Echinochloa crus-galli); test: Test A postemergence, visual injury rating; conditions: 0 is no effect, 100 is complete control
From the text: as §2, §3

[11] = test system: blackgrass (Alopecurus myosuroides); test: Test A postemergence, visual injury rating; conditions: 0 is no effect, 100 is complete control
From the text: as §2, §3

[12] = test system: corn (Zea mays); test: Test A postemergence, visual injury rating; conditions: 0 is no effect, 100 is complete control
From the text: as §2, §3

[13] = test system: kochia (Kochia scoparia); test: Test A postemergence, visual injury rating; conditions: 0 is no effect, 100 is complete control
From the text: as §2, §3

[14] = test system: pigweed (Amaranthus retroflexus); test: Test A postemergence, visual injury rating; conditions: 0 is no effect, 100 is complete control
From the text: as §2, §3

[15] = test system: giant foxtail (Setaria faberii); test: Test A preemergence, visual injury rating; conditions: for Foxtail, Giant plant response rating: 0 to 100 scale (0 no effect, 100 complete control)
Procedure, shortened: (§4)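 Greenhouse pot test, loam/sand soil. Formulation: non-phytotoxic solvent mix plus surfactant. Pre: directed spray onto soil after sowing. Post: plants at 1–2 leaf, 2–10 cm. Rated visually vs untreated controls at ~10 d, 0 (no effect) to 100 (complete control).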

[16] = test system: ragweed (common ragweed, Ambrosia elatior); test: Test A preemergence, visual injury rating; conditions: for Ragweed plant response rating: 0 to 100 scale (0 no effect, 100 complete control)
Procedure, shortened: as §4

[17] = test system: Italian ryegrass (Lolium multiflorum); test: Test A preemergence, visual injury rating; conditions: for Ryegrass, Italian plant response rating: 0 to 100 scale (0 no effect, 100 complete control)
Procedure, shortened: as §4

[18] = test system: barnyardgrass (Echinochloa crus-galli); test: Test A preemergence, visual injury rating; conditions: for Barnyardgrass plant response rating: 0 to 100 scale (0 no effect, 100 complete control)
Procedure, shortened: as §4

[19] = test system: kochia (Kochia scoparia); test: Test A preemergence, visual injury rating; conditions: for Kochia plant response rating: 0 to 100 scale (0 no effect, 100 complete control)
Procedure, shortened: as §4

[20] = test system: pigweed (Amaranthus retroflexus); test: Test A preemergence, visual injury rating; conditions: for Pigweed plant response rating: 0 to 100 scale (0 no effect, 100 complete control)
Procedure, shortened: as §4

[21] = 31 g ai/ha, 0 to 100 scale, approximately 10 days
[22] = 31 g ai/ha, 0 to 100 scale, 0 no effect, 100 complete control

| SMILES | Plant response rating, Ducksalad [1] | Plant response rating, Sedge, Umbrella [2] | Plant response rating, Rice [3] | Plant response rating, Barnyardgrass [4] | Wheat plant response rating (0 to 100 scale) ([5]; 125 g ai/ha) | Foxtail, Giant plant response rating (0 to 100 scale) ([6]; 125 g ai/ha) | Ragweed plant response rating (0 to 100 scale) ([7]; 125 g ai/ha) | Ryegrass, Italian plant response rating (0 to 100 scale) ([8]; 125 g ai/ha) | Galium plant response rating (0 to 100 scale) ([9]; 125 g ai/ha) | Barnyardgrass plant response rating (0 to 100 scale) ([10]; 125 g ai/ha) | Blackgrass plant response rating (0 to 100 scale) ([11]; 125 g ai/ha) | Corn plant response rating (0 to 100 scale) ([12]; 125 g ai/ha) | Kochia plant response rating (0 to 100 scale) ([13]; 125 g ai/ha) | Pigweed plant response rating (0 to 100 scale) ([14]; 125 g ai/ha) | Foxtail, Giant plant response rating ([15]; 125 g ai/ha) | Ragweed plant response rating ([16]; 125 g ai/ha) | Ryegrass, Italian plant response rating ([17]; 125 g ai/ha) | Barnyardgrass plant response rating ([18]; 125 g ai/ha) | Kochia plant response rating ([19]; 125 g ai/ha) | Pigweed plant response rating ([20]; 125 g ai/ha) | other results |
| --- | --- | --- | --- | --- | --- | --- | --- | --- | --- | --- | --- | --- | --- | --- | --- | --- | --- | --- | --- | --- | --- |
| CC(CN(C)C(=O)c1c(Br)cccc1Oc1ncc(Cl)cn1)C(F)(F)F (stereo not drawn) [Compound 18] | 0 | 0 | 0 | 0 | 0 | 0 | 0 | 0 | 0 | 0 | 0 | 0 | 0 | 10 | 0 | 0 | 0 | 0 | 0 | 10 | Wheat plant response rating (0 to 100 scale) ([5]; 500 g ai/ha): 0; Foxtail, Giant plant response rating (0 to 100 scale) ([6]; 500 g ai/ha): 0; Ragweed plant response rating (0 to 100 scale) ([7]; 500 g ai/ha): 0; Ryegrass, Italian plant response rating (0 to 100 scale) ([8]; 500 g ai/ha): 0; Galium plant response rating (0 to 100 scale) ([9]; 500 g ai/ha): 0; Barnyardgrass plant response rating (0 to 100 scale) ([10]; 500 g ai/ha): 0; Blackgrass plant response rating (0 to 100 scale) ([11]; 500 g ai/ha): 0; Corn plant response rating (0 to 100 scale) ([12]; 500 g ai/ha): 0; Kochia plant response rating (0 to 100 scale) ([13]; 500 g ai/ha): 10; Pigweed plant response rating (0 to 100 scale) ([14]; 500 g ai/ha): 20; Foxtail, Giant plant response rating ([15]; 500 g ai/ha): 0; Ragweed plant response rating ([16]; 500 g ai/ha): 0; Ryegrass, Italian plant response rating ([17]; 500 g ai/ha): 0; Barnyardgrass plant response rating ([18]; 500 g ai/ha): 0; Kochia plant response rating ([19]; 500 g ai/ha): 10; Pigweed plant response rating ([20]; 500 g ai/ha): 40 |
| CN(CCC(F)(F)F)C(=O)c1c(Br)cccc1Oc1ncc(Cl)cn1 [Compound 19] | 0 | 0 | 0 | 0 | 0 | 0 | 0 | 0 | 0 | 0 | 0 | 0 | 0 | 10 | 0 | 0 | 0 | 0 | 20 | 20 | Wheat plant response rating [5, 21]: 0; Foxtail, Giant plant response rating [6, 21]: 0; Ragweed plant response rating [7, 21]: 0; Ryegrass, Italian plant response rating [8, 21]: 0; Galium plant response rating [9, 21]: 0; Barnyardgrass plant response rating [10, 21]: 0; Blackgrass plant response rating [11, 21]: 0; Corn plant response rating [12, 21]: 0; Kochia plant response rating [13, 21]: 0; Pigweed plant response rating [14, 21]: 10; Plant response rating, Foxtail, Giant [15, 22]: 0; Plant response rating, Ragweed [16, 22]: 0; Plant response rating, Ryegrass, Italian [17, 22]: 0; Plant response rating, Barnyardgrass [18, 22]: 0; Plant response rating, Kochia [19, 22]: 0; Plant response rating, Pigweed [20, 22]: 0 |
| CN(OCC(F)(F)F)C(=O)c1c(Br)cccc1Oc1ncc(Br)cn1 [Compound 24] | 0 | 0 | 0 | 0 | 0 | 0 | 0 | 0 | 10 | 0 | 0 | 0 | 0 | 0 | 0 | 0 | 0 | 0 | 0 | 0 | Wheat plant response rating (0 to 100 scale) ([5]; 500 g ai/ha): 0; Foxtail, Giant plant response rating (0 to 100 scale) ([6]; 500 g ai/ha): 0; Ragweed plant response rating (0 to 100 scale) ([7]; 500 g ai/ha): 0; Ryegrass, Italian plant response rating (0 to 100 scale) ([8]; 500 g ai/ha): 0; Galium plant response rating (0 to 100 scale) ([9]; 500 g ai/ha): 20; Barnyardgrass plant response rating (0 to 100 scale) ([10]; 500 g ai/ha): 10; Blackgrass plant response rating (0 to 100 scale) ([11]; 500 g ai/ha): 0; Corn plant response rating (0 to 100 scale) ([12]; 500 g ai/ha): 0; Kochia plant response rating (0 to 100 scale) ([13]; 500 g ai/ha): 0; Pigweed plant response rating (0 to 100 scale) ([14]; 500 g ai/ha): 10; Foxtail, Giant plant response rating ([15]; 500 g ai/ha): 20; Ragweed plant response rating ([16]; 500 g ai/ha): 0; Ryegrass, Italian plant response rating ([17]; 500 g ai/ha): 0; Barnyardgrass plant response rating ([18]; 500 g ai/ha): 30; Kochia plant response rating ([19]; 500 g ai/ha): 0; Pigweed plant response rating ([20]; 500 g ai/ha): 90 |
| CN(OCC(F)(F)F)C(=O)c1c(Br)cccc1Oc1ncc(Cl)cn1 [Compound 25] | 0 | 0 | 0 | 0 | 0 | 0 | 10 | 0 | 20 | 0 | 0 | 0 | 10 | 30 | 10 | 0 | 0 | 0 | 0 | 40 | Wheat plant response rating (0 to 100 scale) ([5]; 500 g ai/ha): 10; Foxtail, Giant plant response rating (0 to 100 scale) ([6]; 500 g ai/ha): 10; Ragweed plant response rating (0 to 100 scale) ([7]; 500 g ai/ha): 20; Ryegrass, Italian plant response rating (0 to 100 scale) ([8]; 500 g ai/ha): 0; Galium plant response rating (0 to 100 scale) ([9]; 500 g ai/ha): 50; Barnyardgrass plant response rating (0 to 100 scale) ([10]; 500 g ai/ha): 10; Blackgrass plant response rating (0 to 100 scale) ([11]; 500 g ai/ha): 30; Corn plant response rating (0 to 100 scale) ([12]; 500 g ai/ha): 20; Kochia plant response rating (0 to 100 scale) ([13]; 500 g ai/ha): 50; Pigweed plant response rating (0 to 100 scale) ([14]; 500 g ai/ha): 60; Foxtail, Giant plant response rating ([15]; 500 g ai/ha): 60; Ragweed plant response rating ([16]; 500 g ai/ha): 0; Ryegrass, Italian plant response rating ([17]; 500 g ai/ha): 0; Barnyardgrass plant response rating ([18]; 500 g ai/ha): 30; Kochia plant response rating ([19]; 500 g ai/ha): 50; Pigweed plant response rating ([20]; 500 g ai/ha): 80 |

Reference: patent US11053204B2, “Pyrimidinyloxy benzene derivatives as herbicides” (FMC Corporation, priority 2015, dated 2021)
